For data set [1] the following is noted: blood plasma; cited from earlier work.
For data set [2] the following is noted: human, in vivo, po. The method, then:
A clinical study to estimate the pharmacokinetic (PK) profile of enclomiphene (trans-clomiphene) following single-dose and steady-state doses administered orally. 52 adult males between 18 and 75 years of age with total serum testosterone level<250 ng/dl or between 250 to 300 ng/dl and FSH/LH levels within the normal range, were randomly assigned to one of the following five treatment groups: (i) 12.5 mg enclomiphene/day (ii) 25 mg enclomiphene/day (iii) 50 mg enclomiphene/day (trans-clomiphene) (iv) Androgel® (1% topical testosterone applied daily) or (v) placebo. Enclomiphene citrate was provided as 12.5 mg capsules and orally administered once (12.5 mg arm) twice (25 mg arm) or four times (50 mg arm) per day for 14 consecutive days. Single-dose and steady-state PK assessments were preformed in a subset of these males following the first (Day 1) and last (Day 14) dose. […] Pre-dose plasma enclomiphene concentrations were also measured on Day 11 using a single blood sample. […] PK parameters were calculated using noncompartmental methods for subjects randomized to enclomiphene. The accumulation ratio, defined as the AUC0-24 on Day 14, divided by the AUC0-24 value on Day 1 was calculated.
The accumulation index for each enclomiphene dose group was calculated based on the arithmetic mean of the individual ratio of AUC(0-24) on Day 14 divided by AUC(0-24) on Day 1. […]

Data set [3] deals with rodent, baboon, rabbit and dog models. The data set can be described thus: Animal safety pharmacology studies. Format: in vivo.
In data set [4] the test system is adult human males with secondary hypogonadism. Nature of the data set: One year open label extension study, long term oral trans-clomiphene 12.5 mg daily.
Where [5] appears, read: majority or all of the timepoints.

The text below walks through data of US20160346295A1, “Selective Estrogen Receptor Modulators With Short Half-Lives and Uses Thereof” (REPROS THERAPEUTICS INC., priority 2012, published 2016).

As to `COc1ccc(-c2sc3cc(O)ccc3c2Oc2ccc(OCCN3CCCCC3)cc2)cc1` [Arzoxifene], the Half-Life in data set [1] was 30 h.

With `CCN(CC)CCOc1ccc(C(=C(Cl)c2ccccc2)c2ccccc2)cc1` [Clomid], in data set [1], the Half-Life is 120 to 170 h.

As for `CC/C(=C(/c1ccc(OCCN(C)C)cc1)c1cccc(O)c1)c1ccccc1` [Droloxifene, E-1-[4′-(2-dimethylaminoethoxy)phenyl]-1-(3′-hydroxyphenyl)-2-phenyl-1-butene], the Half-Life in data set [1] was 24 h.

As for `CCN(CC)CCOc1ccc(/C(=C(\Cl)c2ccccc2)c2ccccc2)cc1` [Enclomiphene, trans-clomiphene], in data set [2], the “half life of enclomiphene based on the PK data obtained” value was roughly 10.5 h. The “adverse effects in the central nervous, respiratory or cardiovascular systems” value in data set [3] was “no adverse effects”. Moreover, in data set [4] (12.5 mg daily oral), the “other questionnaires of sexual function (DISF-SR II (M), MSDS)” value is reported as “no concomitantly significant changes” and the “overall mean increases in total serum testosterone from baseline to 1 year” value is on record as “statistically significant”. Also, in data set [4] (12.5 mg daily oral up to one year), the “subjects who experienced serious adverse effects (SAEs)” value amounted to 5%. Moreover, the “subjects who experienced at least one adverse event considered related to the study drug” value in data set [4] (19/101 subjects) turned out to be 18.8%. The “subjects with mean total serum testosterone levels within the normal reference range” value in data set [4] (at 1 year, normal range 300-1040 ng/dl, 12.5 mg daily oral) turned out to be 62.5%. For the same molecule, in data set [4] (during the study), the “discontinuation due to a reduction in visual acuity” value is on record as “No subjects were discontinued”; the “hematology, blood chemistry, urinalysis, vital signs, physical exam, PSA values, ECG readings” value is “no clinically relevant changes”; the “subjects discontinued from the study due to AEs” value is given as “Nine”; the “subjects who experienced at least one adverse event” value came to 51.5%. For the same molecule, the “subjects with events considered severe” value in data set [4] (during the study) was “nine”. For the same molecule, the “libido, libido component of IIEF questionnaire” value in data set [4] (from baseline at months 4, 6 and 12) was “Statistically significant improvements”. Further, in data set [4] (setting [5]), the DHT/testosterone ratio change result is given as “Statistically significant increases”, the FSH change result was “Statistically significant increases”, the LH change entry is reported as “Statistically significant increases” and the “dihydrotestosterone (DHT) change” value is “Statistically significant increases”. Further, in data set [4] (setting [5]), the estradiol change result is on record as “Statistically significant increases”, the “high-density lipoprotein cholesterol (HDL-C) change from baseline” value is “Statistically significant decreases”, the prolactin change entry is reported as “statistically significant decreases” and the “sex hormone binding globulin (SHBG) change” value is listed as “Statistically significant increases”. Moreover, in data set [4] (setting [5]), the “total cholesterol (TC) change from baseline” value is “Statistically significant decreases” and the “triglycerides change from baseline” value was “Statistically significant decreases”. Also, the “testicular size, significance of increase” value in data set [4] (orchidometer) is on record as “statistically significant increase was observed at Month 6 only”.

Take `CC/C(=C(\c1ccc(I)cc1)c1ccc(OCCN2CCCC2)cc1)c1ccccc1` [Idoxifene]: the Half-Life in data set [1] is given as 3 weeks.

On to `Oc1ccc2c(c1)CC[C@H](c1ccccc1)[C@@H]2c1ccc(OCCN2CCCC2)cc1` [Lasofoxifene], for which, in data set [1], the Half-Life was 140 h.

As to `COc1ccc2c(c1)OC(C)(C)[C@@H](c1ccccc1)[C@@H]2c1ccc(OCCN2CCCC2)cc1` [Levormeloxifene, (−)-3R,4R-trans-7-methoxy-2,2-dimethyl-3-phenyl-4-{4-[2-(pyrrolidin-1-yl)ethoxy]phenyl} chromane], in data set [1], the Half-Life is 24 h.

With `COc1ccc2c(c1)OC(C)(C)C(c1ccccc1)C2c1ccc(OCCN2CCCC2)cc1` (stereo not shown) [Ormeloxifene], the Half-Life in data set [1] was 170 h.

With `OCCOc1ccc(/C(=C(/CCCl)c2ccccc2)c2ccccc2)cc1` [Ospemifene], in data set [1], the Half-Life was 26 h.

As to `O=C(c1ccc(OCCN2CCCCC2)cc1)c1c(-c2ccc(O)cc2)sc2cc(O)ccc12` [Raloxifene, 6-hydroxy-2(4-hydroxyphenyl)-3-[4-(2-piperdinoethoxy)benzoyl]benzo[b]thiophene], in data set [1], the Half-Life was 27 h.

With `CC/C(=C(\c1ccccc1)c1ccc(OCCN(C)C)cc1)c1ccccc1` [Tamoxifen], the Half-Life in data set [1] was 120 to 170 h.
